Assay results reported in patent US20220195384A1, “COMPOSITION FOR PROMOTING PRODUCTION OF STEM CELL-DERIVED EXOSOMES AND INCREASING STEMNESS” (BREXOGEN INC., priority 2019, published 2022).

Tested on: primary umbilical cord-derived mesenchymal stem cells
Test: Stem cell stemness: colony formation (CFU-F, crystal violet) after pretreatment
Format: cell-based
Settings: 10 ng/mL interferon-γ pretreatment one week
Method: (§1) In a culture medium [high glucose DMEM (Gibco, Cat no. 11995-065); 10% fetal bovine serum (HyClone), 1% MEM non-essential amino acids solution (100×) (Gibco, Cat no. 11140-050)] containing 20 nM of exendin-4, primary umbilical cord-derived mesenchymal stem cells (ATCC No. PCS-500-010; Lot No. 63822428) were cultured for one week.
as §1, with “10” for “20”, “PMA,” for “exendin-4,”
as §1, with “10 ng/mL interferon-γ,” for “20 nM of exendin-4,”
as §1, with “10 μM” for “20 nM”, “tetrandrine,” for “exendin-4,”
as §1, with “10 μg/mL hyaluronic acid,” for “20 nM of exendin-4,”
as §1, with “30” for “20”, “substance P,” for “exendin-4,”
as §1, with “10” for “20”, “resveratrol,” for “exendin-4,”
as §1, with “10 μM” for “20 nM”, “lanifibranor,” for “exendin-4,”
Mesenchymal stem cells and the exendin-4-pretreated mesenchymal stem cells of the Example were each seeded at a density of 1,000 cells/dish into 100-mm cell culture dishes containing […] of a culture medium [high glucose DMEM (Gibco, Cat no. 11995-065), 10% fetal bovine serum (HyClone), 1% MEM non-essential amino acids solution (100×) (Gibco, Cat no. 11140-050)] per dish and cultured for 21 days. The cell-attached dishes were washed twice with PBS, followed by fixation with 95% methanol at room temperature for about 2 min. The fixed cells were washed three times with PBS and stained with 0.5% crystal violet [(sigma, C-3886, USA) […], methanol 100 ml] for 5 min. After water washing and drying at room temperature, colonies, each composed of 50 or more cells, were counted for comparison.
Mesenchymal stem cells and the PMA-pretreated mesenchymal stem cells of the Example were each seeded at a density of 1,000 cells/dish into 100-mm cell culture dishes containing […] of a culture medium [high glucose DMEM (Gibco, Cat no. 11995-065), 10% fetal bovine serum (HyClone), 1% MEM non-essential amino acids solution (100×) (Gibco, Cat no. 11140-050)] per dish and cultured for 21 days. The cell-attached dishes were washed twice with PBS, followed by fixation with 95% methanol at room temperature for about 2 min. […]

interferon-γ [IFNγ MSC-Exo = exosomes of IFNγ-treated mesenchymal stem cells]
colonies formed (each 50 or more cells) (1,000 cells/dish, 21 days, non-treated 28.6): 136 colonies
CFU-F increase (vs non-treated): about 476%
